We go through nine compounds from ChEMBL document CHEMBL1201862, “PubChem BioAssay data set” (2004).

Among the test systems are HOP-62; HCT-116; SNB-75; MOLT-4; TK-10; UO-31; 786-0; HT-29; NCI-H226; SR; NCI-H460; NCI/ADR-RES; KM12; OVCAR-3; UACC-257; SN12C; NCI-H23; M14.
Assay in all cases: inhibition of tumour cell growth, NCI panel, 48 h

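Compound exposure: 48 hours, 5 concentrations, 96-well plates. At the GI50, growth is halved.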 Active and inactive are the calls of the source. Cut-off read from the data, not from the text of the source: active = GI50 up to about 1.1 µM and inactive = higher.

With `COc1cccc(NC(=O)CC(=O)NN)c1`, the GI50 in the test on HOP-62, with HCT-116, in the test on SNB-75, with MOLT-4, with TK-10 and in the test on UO-31 was > 100 µM (inactive) in each case. The GI50 in the test on 786-0, in the test with HT-29, with NCI-H226, with SR, in the test with NCI-H460 and with NCI/ADR-RES was > 100 µM (inactive) in each case. The GI50 in the test on KM12, with OVCAR-3, in the test with UACC-257, in the test with SN12C and in the test with NCI-H23 was > 100 µM (inactive) each time.

Consider `CCOC(=O)Cn1sc2ncc([N+](=O)[O-])cc2c1=O`, for which the GI50 in the test on HOP-62 was 15.4 µM (inactive); in the test with HCT-116, 17.3 µM (inactive); in the test on SNB-75 it was 39.5 µM (inactive); in the test with MOLT-4, 2.86 µM (inactive); in the test on TK-10, 17.9 µM (inactive); with UO-31, 10.1 µM (inactive). Moreover, the GI50 with 786-0 was 16.9 µM (inactive); with HT-29, 16.2 µM (inactive); in the test on NCI-H226, > 100 µM (inactive); in the test with SR it was 4.02 µM (inactive); in the test on NCI-H460, 17.1 µM (inactive); with NCI/ADR-RES, 13.9 µM (inactive). The GI50 was 18.5 µM (inactive) with KM12; 16.8 µM (inactive) in the test with OVCAR-3; 17.1 µM (inactive) in the test on UACC-257; 16.6 µM (inactive) with SN12C; 17.9 µM (inactive) with NCI-H23.

As to `COc1ccc(Nc2nc(N)c(C(=O)c3ccccc3)s2)cc1`, the GI50 with HOP-62 is 16.7 µM (inactive); in the test on HCT-116 it was 0.0267 µM (active); with SNB-75, 0.0258 µM (active); in the test with MOLT-4, < 0.0238 µM (active); in the test on TK-10 it was 23.8 µM (inactive); with UO-31, 0.0912 µM (active). Also, the GI50 was 0.0494 µM (active) in the test with 786-0; 0.0162 µM (active) in the test on HT-29; 0.0935 µM (active) in the test on NCI-H226; < 0.01 µM (active) in the test on SR; 0.0289 µM (active) in the test on NCI-H460; < 0.01 µM (active) in the test on NCI/ADR-RES. Besides, the GI50 was 0.143 µM (active) in the test on KM12; 0.0607 µM (active) in the test on OVCAR-3; 29.5 µM (inactive) in the test with UACC-257; 0.0811 µM (active) in the test on SN12C; 0.232 µM (active) with NCI-H23.

In the case of `CC(C)CC1C(=O)NCCC(NC(=O)C(Cc2ccc(OC(C)(C)C)cc2)NC(=O)OC(C)(C)C)C(=O)NC(Cc2ccccc2)C(=O)NC(Cc2ccccc2)NC1=O` (configuration not stated), the GI50 is 19.5 µM (inactive) with HOP-62; 4.05 µM (inactive) in the test with HCT-116; 1.51 µM (inactive) in the test on MOLT-4; 11.7 µM (inactive) in the test with TK-10; > 100 µM (inactive) in the test with UO-31; 1.71 µM (inactive) with 786-0. Also, the GI50 is 3.67 µM (inactive) with HT-29; 12.6 µM (inactive) in the test with M14; 5.06 µM (inactive) in the test with NCI-H226; 13.2 µM (inactive) in the test on SR; 2.96 µM (inactive) in the test with NCI-H460; > 100 µM (inactive) in the test with NCI/ADR-RES. The GI50 is 43.6 µM (inactive) in the test on KM12; 4.6 µM (inactive) in the test with OVCAR-3; 12.1 µM (inactive) with UACC-257; 16.5 µM (inactive) in the test on SN12C; 13.3 µM (inactive) in the test with NCI-H23.

In the case of `COC(=O)c1ccc(NCc2cc(O)c3ccccc3c2O)cc1`, the GI50 with HOP-62 is 14.4 µM (inactive); in the test on HCT-116, 15.7 µM (inactive); with SNB-75, 22.5 µM (inactive); in the test with MOLT-4 it was 2.81 µM (inactive); in the test on TK-10, 24.4 µM (inactive); in the test on UO-31, 13.1 µM (inactive). In addition, the GI50 in the test with 786-0 was 16.1 µM (inactive); in the test with HT-29, 18.7 µM (inactive); in the test with NCI-H226, 16.4 µM (inactive); with SR it was 4.54 µM (inactive); in the test with NCI-H460, 7.31 µM (inactive); with NCI/ADR-RES it was 27.1 µM (inactive). Besides, the GI50 in the test with KM12 is 14.8 µM (inactive); in the test on OVCAR-3 it was 14.9 µM (inactive); with UACC-257, 7.87 µM (inactive); in the test with SN12C, 7.13 µM (inactive); in the test with NCI-H23, 6.65 µM (inactive).

For `CN(C)CCNc1ccccn1`, the GI50 in the test with HOP-62, in the test on HCT-116, in the test on MOLT-4, with TK-10, in the test with UO-31 and in the test with 786-0 was > 100 µM (inactive) in each case. For the same compound, the GI50 with HT-29, in the test with M14, with NCI-H226, in the test with SR, in the test with NCI-H460 and in the test on NCI/ADR-RES was > 100 µM (inactive) in each case. The GI50 in the test on KM12, in the test on OVCAR-3, in the test on UACC-257, in the test on SN12C and in the test with NCI-H23 was > 100 µM (inactive) in each case.

`O=S1(=O)OCCOS(=O)(=O)C1Cc1cccc2ccccc12`: the GI50 was 23.9 µM (inactive) in the test with HOP-62; 20.3 µM (inactive) in the test on HCT-116; 29.6 µM (inactive) with SNB-75; 23.7 µM (inactive) in the test on MOLT-4; 30.7 µM (inactive) in the test on TK-10; 23.2 µM (inactive) in the test on UO-31. Also, the GI50 was 21.4 µM (inactive) with 786-0; 25.5 µM (inactive) in the test on HT-29; 20.7 µM (inactive) in the test on M14; 7.83 µM (inactive) in the test with NCI-H226; 25.2 µM (inactive) with SR; 17 µM (inactive) with NCI-H460. The GI50 with NCI/ADR-RES is 20.3 µM (inactive); in the test with UACC-257, 14.1 µM (inactive); in the test on SN12C, 20.6 µM (inactive); in the test on NCI-H23, 29.9 µM (inactive).

For `N=C(N)N/N=C/c1c(-c2ccc(N)cc2)nc2sccn12`, the GI50 in the test on HOP-62 is 26.5 µM (inactive); in the test with HCT-116 it was 23.3 µM (inactive); in the test on MOLT-4 it was 25.4 µM (inactive); in the test on TK-10, 20.9 µM (inactive); with UO-31 it was 20 µM (inactive); with 786-0 it was 23.9 µM (inactive). Moreover, the GI50 was 22.7 µM (inactive) in the test with HT-29; 24.2 µM (inactive) with M14; > 100 µM (inactive) with NCI-H226; 33.7 µM (inactive) in the test with SR; 26.4 µM (inactive) in the test on NCI-H460; > 100 µM (inactive) in the test with NCI/ADR-RES. Moreover, the GI50 is 21.2 µM (inactive) in the test on KM12; 21.8 µM (inactive) with OVCAR-3; > 100 µM (inactive) with UACC-257; 21.3 µM (inactive) in the test with SN12C; 28.1 µM (inactive) with NCI-H23.

As to `[O-][n+]1onc2c1-c1nonc1CC2`, the GI50 in the test on HOP-62 was 28.2 µM (inactive); in the test on HCT-116 it was 20.7 µM (inactive); in the test on MOLT-4, 19.2 µM (inactive); in the test on TK-10 it was 21.5 µM (inactive); with UO-31 it was 48.6 µM (inactive); in the test with 786-0, 43.7 µM (inactive). The GI50 in the test with HT-29 is 35.5 µM (inactive); in the test on M14 it was 25.1 µM (inactive); with NCI-H226, 36.8 µM (inactive); with SR, 1.46 µM (inactive); in the test on NCI-H460 it was 54.2 µM (inactive); in the test with NCI/ADR-RES, 42.7 µM (inactive). The GI50 is 45.3 µM (inactive) with KM12; 10.6 µM (inactive) in the test with OVCAR-3; 18.5 µM (inactive) in the test on UACC-257; 37.5 µM (inactive) in the test on SN12C; 23.8 µM (inactive) in the test with NCI-H23.
